Experimental data taken from patent US12612388B2, “Receptor-interacting protein 1 inhibitors including piperazine heterocyclic amide ureas” (SIRONAX LTD., priority 2020, dated 2026).

Tested on: HT-29 cells
Test: Cellular RIP1 inhibitory activity: necroptosis of HT-29 cells induced by TNF-α/SMAC mimetic/zVAD-FMK, CellTiter-Glo viability
Type: cell-based
Details: Homo sapiens, HT-29, 20 h, read-out: EC50 (Cell activity; Necrosis or Necroptosis Inhibitory Activity)
Description: In Table 2, activity is provided as follows: +++=0.1 nM≤EC50<100 nM; ++=100 nM≤EC50K<1000 nM; +=1000 nM≤EC50K<10000 nM.
Compounds 1-67 (denoted as Compound Nos. 1 through 67 in Table 1) of the disclosure were tested for binding and cellular RIP1 inhibitory activity following the experimental procedures described below.
Cell line: HT-29 (ATCC® HTB-38™)
Culture medium: McCOY's 5A, Gibco, Cat No. 16600-082
DMSO: Sigma, Cat No. 67-68-5, 1 L
Assay plate: Corning #3903
Compound dilution plate: Corning #3357
Inducers: TNFα, GenScript, Cat No. Z01001-50,
SmacM, Cat. No., HY-15989, MedChemExpress (MCE)
Z_VAD FMK, TargetMol, T6013
Cell Titer-Glo® Luminescent Cell Viability Assay Kit: Promega, Cat No. G7573
1. HT-29 cells were checked every day to make sure that they were healthy and growing as expected. They were subjected to sub-culturing when they were approximately 80% confluent.
2. The culture medium, McCOY's 5A medium (Gibco, Cat No. 16600-082) with 10% fetal bovine serum or FBS (Gibco, Cat No. 10099-141C), was pre-warmed in a 37° C. water bath for at least 30 min.
3. When the cells had reached a desired level of confluency of 80% in a T75 flask, the medium was aspirated, and the cells were washed with warm phosphate buffered saline or PBS two times.
4. 2-3 ml fresh warm trypsin (Gibco, Cat No. 25200-056) solution was added to the washed cells. The flask with the cells was transferred to a 37° C. incubator.
5. After 5 minutes, the side of the flask was tapped, and the flask was examined under a microscope for detachment of the cells to the flask. If necessary, the cells were kept in the incubator for an additional 5-10 minutes, with occasional tapping, until lifting was complete.
6. The trypsin reaction was neutralized by transferring 6-9 ml cell culture medium to sterile 15 ml conical tubes, and by centrifuging the cell culture at 300×g for 7 minutes to pellet the cells (supernatant decanted).
7. The cells were resuspended in fresh cell culture medium and the cell counting was performed using a hemocytometer.
8. 100 μl of the resuspended cell culture medium containing ˜5,000 cells were transferred into each well of the sterile 96-well cell culture plate (Corning 3903) and cultured overnight at 37° C. with 5% CO2.
Compound Titration and Treatment
1. All test compounds were dissolved in DMSO (Dimethyl sulfoxide) to create a 20 mM stock.
2. 3 μl of each compound 20 mM stock was mixed with 27 μl DMSO, and the compound solution was further diluted at a titration ratio of 1:3 (20 μl compound solution+40 μl DMSO) till the 10 points end.
3. All culture medium was removed from assay plates filled with HT-29 cell cultures. The cells were then washed with 1 PBS, and resuspended in fresh, FBS-free McCOY's 5A medium containing a cocktail of TNF-α (10 ng/ml), a SMAC mimetic compound (6 μM) and Z-VAD-fluoromethylketone or zVAD-FMK (10 μM) to stimulate the HT-29 cells to increase RIP1 kinase levels and necroptosis.
4. 0.5 μL of the diluted compound solution was added to the corresponding 96-well assay plates.
5. The assay plates were incubated for 20 hours at 37° C. with 5% CO2.
1. The CellTiter-Glo® Luminescent Cell Viability Assay was employed to detect the ATP levels of viable HT-29 cells.
2. The CellTiter-Glo® buffer and the lyophilized substrate were equilibrated to room temperature prior to use.
3. The CellTiter-Glo® substrate was resuspended with CellTiter-Glo® buffer, then mixed by gently vortexing to obtain a homogeneous solution.
4. 20 μl the enzyme/substrate mixture was transferred by multi-channel pipetting into 96-well assay plates.
5. The assay plates were placed on an orbital shaker and the contents were shaken for 3 minutes to induce cell lysis.
6. The assay plates were incubated at room temperature for 10 minutes to stabilize the luminescent signal.
7. The luminescence signals were read and recorded with EnVision.
8. The geometric mean EC50 values were calculated from 10 points response dose with duplicates. […]

Row | Compound | EC50
1 | O=C(c1ccnc(N2CCN(C(=O)N3N=CC[C@H]3c3cc(F)cc(F)c3)CC2)n1)N1CCC1 [Compound 36, (S)-azetidin-1-yl(2-(4-(5-(3,5-difluorophenyl)-4,5-dihydro-1H-pyrazole-1-carbonyl)piperazin-1-yl)pyrimidin-4-yl)methanone] | 0.1 to 100 nM
2 | O=C(c1nc(N2CCN(C(=O)N3N=CC[C@H]3c3cc(F)cc(F)c3)CC2)ncc1F)N1CCC1 [Compound 7, (S)-azetidin-1-yl(2-(4-(5-(3,5-difluorophenyl)-4,5-dihydro-1H-pyrazole-1-carbonyl)piperazin-1-yl)-5-fluoropyrimidin-4-yl)methanone] | 0.1 to 100 nM

Same assay, conditions: Homo sapiens; HT-29 cells; TNF-α 10 ng/ml, SMAC mimetic 6 μM, zVAD-FMK 10 μM; 20 hours; geometric mean, 10 points, duplicates; read-out: EC50 (Cell activity; Necrosis or Necroptosis Inhibitory Activity)

Row | Compound | EC50
3 | O=C(c1nc(N2CCN(C(=O)N3N=CC[C@H]3c3cc(F)cc(F)c3)CC2)ncc1F)N1CCCC1 [Compound 8, (S)-(5-(3,5-difluorophenyl)-4,5-dihydro-1H-pyrazol-1-yl)(4-(5-fluoro-4-(pyrrolidine-1-carbonyl)pyrimidin-2-yl)piperazin-1-yl)methanone] | 0.1 to 100 nM
4 | CNC(=O)c1ccnc(N2CCN(C(=O)N3N=CC[C@H]3c3cc(F)cc(F)c3)CC2)n1 [Compound 46, (S)-2-(4-(5-(3,5-difluorophenyl)-4,5-dihydro-1H-pyrazole-1-carbonyl)piperazin-1-yl)-N-methylpyrimidine-4-carboxamide] | 0.1 to 100 nM
5 | CNC(=O)c1nc(N2CCN(C(=O)N3N=CC[C@H]3c3cc(F)cc(F)c3)CC2)ncc1F [Compound 4] | 0.1 to 100 nM
6 | CN(C(=O)c1nc(N2CCN(C(=O)N3N=CC[C@H]3c3cc(F)cc(F)c3)CC2)ncc1F)C1CC1 [Compound 9, (S)—N-cyclopropyl-2-(4-(5-(3,5-difluorophenyl)-4,5-dihydro-1H-pyrazole-1-carbonyl)piperazin-1-yl)-5-fluoro-N-methylpyrimidine-4-carboxamide] | 0.1 to 100 nM
7 | N#CCC1CN(C(=O)c2nc(N3CCN(C(=O)N4N=CC[C@H]4c4cc(F)cc(F)c4)CC3)ncc2F)C1 [Compound 58, (S)-2-(1-(2-(4-(5-(3,5-difluorophenyl)-4,5-dihydro-1H-pyrazole-1-carbonyl)piperazin-1-yl)-5-fluoropyrimidine-4-carbonyl)azetidin-3-yl)acetonitrile] | 0.1 to 100 nM
8 | NC(=O)[C@H]1CCN(C(=O)c2nc(N3CCN(C(=O)N4N=CC[C@H]4c4cc(F)cc(F)c4)CC3)ncc2F)C1 [Compound 26, (S)-1-(2-(4-((S)-5-(3,5-difluorophenyl)-4,5-dihydro-1H-pyrazole-1-carbonyl)piperazin-1-yl)-5-fluoropyrimidine-4-carbonyl)pyrrolidine-3-carboxamide] | 0.1 to 100 nM
9 | CC1(O)CN(C(=O)c2nc(N3CCN(C(=O)N4N=CC[C@H]4c4cc(F)cc(F)c4)CC3)ncc2F)C1 [Compound 50, (S)-(5-(3,5-difluorophenyl)-4,5-dihydro-1H-pyrazol-1-yl)(4-(5-fluoro-4-(3-hydroxy-3-methylazetidine-1-carbonyl)pyrimidin-2-yl)piperazin-1-yl)methanone] | 0.1 to 100 nM
10 | O=C(c1nc(N2CCN(C(=O)N3N=CC[C@H]3c3cc(F)cc(F)c3)CC2)ncc1F)N1CC(OC(F)(F)F)C1 [Compound 60, (S)-(5-(3,5-difluorophenyl)-4,5-dihydro-1H-pyrazol-1-yl)(4-(5-fluoro-4-(3-(trifluoromethoxy)azetidine-1-carbonyl)pyrimidin-2-yl)piperazin-1-yl)methanone] | 0.1 to 100 nM
11 | CCN(C)C(=O)c1nc(N2CCN(C(=O)N3N=CC[C@H]3c3cc(F)cc(F)c3)CC2)ncc1F [Compound 6, (S)-2-(4-(5-(3,5-difluorophenyl)-4,5-dihydro-1H-pyrazole-1-carbonyl)piperazin-1-yl)-N-ethyl-5-fluoro-N-methylpyrimidine-4-carboxamide] | 0.1 to 100 nM
12 | COC1(C)CN(C(=O)c2nc(N3CCN(C(=O)N4N=CC[C@H]4c4cc(F)cc(F)c4)CC3)ncc2F)C1 [Compound 22, (S)-(5-(3,5-difluorophenyl)-4,5-dihydro-1H-pyrazol-1-yl)(4-(5-fluoro-4-(3-methoxy-3-methylazetidine-1-carbonyl)pyrimidin-2-yl)piperazin-1-yl)methanone] | 0.1 to 100 nM
13 | CN(O)C(=O)c1nc(N2CCN(C(=O)N3N=CC[C@H]3c3cc(F)cc(F)c3)CC2)ncc1F [Compound 20, (S)-2-(4-(5-(3,5-difluorophenyl)-4,5-dihydro-1H-pyrazole-1-carbonyl)piperazin-1-yl)-5-fluoro-N-hydroxy-N-methylpyrimidine-4-carboxamide] | 0.1 to 100 nM
14 | O=C(c1nc(N2CCN(C(=O)N3N=CC[C@H]3c3cc(F)cc(F)c3)CC2)ncc1F)N1CCCCC1 [Compound 17, (5-(3,5-difluorophenyl)-4,5-dihydro-1H-pyrazol-1-yl)(4-(5-fluoro-4-(piperidine-1-carbonyl)pyrimidin-2-yl)piperazin-1-yl)methanone] | 0.1 to 100 nM
15 | N#C[C@@H]1CCN(C(=O)c2nc(N3CCN(C(=O)N4N=CC[C@H]4c4cc(F)cc(F)c4)CC3)ncc2F)C1 [Compound 16, (3R)-1-(2-(4-(5-(3,5-difluorophenyl)-4,5-dihydro-1H-pyrazole-1-carbonyl)piperazin-1-yl)-5-fluoropyrimidine-4-carbonyl)pyrrolidine-3-carbonitrile] | 0.1 to 100 nM
16 | COC(=O)c1ccnc(N2CCN(C(=O)N3N=CC[C@H]3c3cc(F)cc(F)c3)CC2)n1 [Compound 49, methyl (S)-2-(4-(5-(3,5-difluorophenyl)-4,5-dihydro-1H-pyrazole-1-carbonyl)piperazin-1-yl)pyrimidine-4-carboxylate] | 0.1 to 100 nM
17 | NC(=O)c1cc(N2CCN(C(=O)N3N=CC[C@H]3c3cc(F)cc(F)c3)CC2)ncn1 [Compound 40, (S)-6-(4-(5-(3,5-difluorophenyl)-4,5-dihydro-1H-pyrazole-1-carbonyl)piperazin-1-yl)pyrimidine-4-carboxamide] | 0.1 to 100 nM
18 | N#Cc1cc(F)cc([C@@H]2CC=NN2C(=O)N2CCN(c3nccc(C(N)=O)n3)CC2)c1 [Compound 42, (S)-2-(4-(5-(3-cyano-5-fluorophenyl)-4,5-dihydro-1H-pyrazole-1-carbonyl)piperazin-1-yl)pyrimidine-4-carboxamide] | 0.1 to 100 nM
19 | N#Cc1cc(F)cc([C@@H]2CC=NN2C(=O)N2CCN(c3ncc(F)c(C(=O)N4CC(C#N)C4)n3)CC2)c1 [Compound 54, (S)-1-(2-(4-(5-(3-cyano-5-fluorophenyl)-4,5-dihydro-1H-pyrazole-1-carbonyl)piperazin-1-yl)-5-fluoropyrimidine-4-carbonyl)azetidine-3-carbonitrile] | 0.1 to 100 nM
20 | COC1CN(C(=O)c2nc(N3CCN(C(=O)N4N=CC[C@H]4c4cncc(C#N)c4)CC3)ncc2F)C1 [Compound 53, (S)-5-(1-(4-(5-fluoro-4-(3-methoxyazetidine-1-carbonyl)pyrimidin-2-yl)piperazine-1-carbonyl)-4,5-dihydro-1H-pyrazol-5-yl)nicotinonitrile] | 0.1 to 100 nM
21 | N#CC=C1CN(C(=O)c2nc(N3CCN(C(=O)N4N=CC[C@H]4c4cc(F)cc(F)c4)CC3)ncc2F)C1 [Compound 57, (S)-2-(1-(2-(4-(5-(3,5-difluorophenyl)-4,5-dihydro-1H-pyrazole-1-carbonyl)piperazin-1-yl)-5-fluoropyrimidine-4-carbonyl)azetidin-3-ylidene)acetonitrile] | 0.1 to 100 nM
